{"source": "patent US7754896B2", "about": "“Indol-alanine derivatives as selective S1P4-agonists” (Novartis AG, priority 2004, dated 2010)", "molecular_target": "T1, S1P4 (Homo sapiens, UniProt O95977)", "T1 construct": "expressed in transfected cells", "T1 sequence (O95977 1-384)": "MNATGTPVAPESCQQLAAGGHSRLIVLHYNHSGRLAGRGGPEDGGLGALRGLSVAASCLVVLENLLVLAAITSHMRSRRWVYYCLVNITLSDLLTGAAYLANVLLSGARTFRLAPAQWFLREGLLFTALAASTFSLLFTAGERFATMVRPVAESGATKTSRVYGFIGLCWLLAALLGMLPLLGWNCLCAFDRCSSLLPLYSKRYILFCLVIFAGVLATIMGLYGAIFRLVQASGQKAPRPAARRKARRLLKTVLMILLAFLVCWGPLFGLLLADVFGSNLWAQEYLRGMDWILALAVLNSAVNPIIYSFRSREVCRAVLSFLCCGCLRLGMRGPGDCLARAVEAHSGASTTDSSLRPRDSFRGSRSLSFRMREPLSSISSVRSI", "assay": "Calcium mobilization assay, CHO cells expressing S1P4", "type": "cell-based", "description": "An expression vector for the human S1P4 gene (HSEDG4; GenBank Accession Number AJ000479) fused to the c-myc peptide tag at the C-terminus is obtained as described in Van Brocklyn et al. 2000, Blood 95(8), 2624. The encoding DNA for the S1P4-myc fusion protein is cloned in the mammalian expression vector pRc/CMV (Invitrogen), which confers G418 resistance for the selection of stable mammalian cells. The DNA sequence of the S1P4 insert is determined on both strands. […] The S1P4-myc cDNA is inserted into the pRc/CMV vector using HindIII/XbaI.\nTo develop stable cell lines expressing the c-myc tagged S1P4 receptor 5 μg of plasmid pRc/CMV myc-S1P4 is cut using restriction endonuclease PvuI, which cleaves the plasmid once. The linearized plasmid is then precipitated using a final concentration of 0.3M sodium acetate, pH5.0 and 66% ethanol. […] Individual clones that grew after the sort and selection procedure are expanded and one clone is finally selected based on the level of S1P4 mRNA expression determined by TaqMan quantitative PCR analysis.\nCHO cells are plated in black Costar plate (96 or 384 well, 50,000 cells or 12,500 cells, respectively) in a MEM with FCS and cultured for 20-24 h at 37° C. in a CO2 incubator. […] After measuring the baseline for 40 sec, the agonist in HBSS is added and the fluorescence is measured at intervals of 2 sec for 3 to 5 min. […]", "data": [{"molecule": "NC(CNC(=O)c1cc2c(-c3ccccc3Cc3ccccc3)cccc2[nH]1)C(=O)O", "note": "(stereo not shown) [Example 2]", "values": [{"measurement": "EC50", "result": 0.01, "unit": "µM"}]}]}
